The record followed here is ChEMBL document CHEMBL5331094, “Identification of 2,4,5-trisubstituted-2,4-dihydro-3H-1,2,4-triazol-3-one-based small molecules as selective BRD9 binders” (Eur J Med Chem, 2023).

One data set has as its system MCF7. As to the kind of experiment: Cytotoxicity against human MCF7 cells assessed as cell viability measured after 24 hrs by MTT assay. It is filed as functional, cell-based. Particulars: MCF7, 24 h.
The target of data set [1] is Bromodomain-containing protein 4 (Homo sapiens) (UniProt O60885). As to the kind of experiment: Binding affinity of recombinant His-tagged BRD4-BD2 (unknown origin) to histone H4Ac (1 to 21 residues) K5/8/12/Ac-Biotin-OH assessed as residual binding at 10 uM incubated for 30 mins by alphascreen analysis relative to control. Background: Bead proximity is the source of the signal in Alpha formats.

The target in data set [2] is T1, Bromodomain-containing protein 9 (Homo sapiens, UniProt Q9H8M2).
T1 sequence (Q9H8M2 whole entry): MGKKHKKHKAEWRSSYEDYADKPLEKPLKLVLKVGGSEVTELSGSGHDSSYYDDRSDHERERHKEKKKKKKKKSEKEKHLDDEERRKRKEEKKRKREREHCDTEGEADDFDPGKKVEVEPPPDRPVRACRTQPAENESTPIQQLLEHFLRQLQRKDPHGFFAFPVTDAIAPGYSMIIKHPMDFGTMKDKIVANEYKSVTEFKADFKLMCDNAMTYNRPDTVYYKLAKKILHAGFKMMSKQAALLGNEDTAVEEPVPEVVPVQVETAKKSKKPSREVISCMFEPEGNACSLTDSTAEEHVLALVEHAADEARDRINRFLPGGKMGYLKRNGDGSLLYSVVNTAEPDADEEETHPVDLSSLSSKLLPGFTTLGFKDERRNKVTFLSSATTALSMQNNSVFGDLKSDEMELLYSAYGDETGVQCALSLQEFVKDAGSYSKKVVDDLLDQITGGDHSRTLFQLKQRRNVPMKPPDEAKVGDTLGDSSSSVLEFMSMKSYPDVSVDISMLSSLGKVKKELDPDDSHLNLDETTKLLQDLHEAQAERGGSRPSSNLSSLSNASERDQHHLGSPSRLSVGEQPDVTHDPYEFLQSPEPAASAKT
As to the kind of experiment: Inhibition of BRD9 (unknown origin) by alpha screen analysis.

The subject of the next data set is A-375. As to the kind of experiment: Cytotoxicity against human A-375 cells assessed as cell viability measured after 24 hrs by MTT assay. The format is functional, cell-based. Particulars: A-375, 24 h.
Data set [3] deals with Bromodomain adjacent to zinc finger domain protein 2B (Homo sapiens) (UniProt Q9UIF8). As to the kind of experiment: Binding affinity of recombinant His-tagged BAZ2B (unknown origin) to histone H3 (1 to 21 residues) K9/14Ac-Biotin-OH assessed as residual binding at 10 uM incubated for 30 mins by alphascreen analysis relative to control.
Data set [4] has as its target CREB-binding protein (Homo sapiens) (UniProt Q92793). As to the kind of experiment: Binding affinity of recombinant His-tagged CREBBP (unknown origin) to histone H4Ac (1 to 21 residues) K5/8/12/Ac-Biotin-OH assessed as residual binding at 10 uM incubated for 30 mins by alphascreen analysis relative to control.
A short description of data set [5]: Cytotoxicity against human erythrocytes assessed as cell viability measured after 24 hrs by MTT assay. The format is toxicity, cell-based, Erythrocyte. (In general: Tetrazolium assays rely on reduction of a dye to a coloured formazan, in cell work by metabolically active cells.)
Data set [6] has as its target Chromatin remodeling regulator CECR2 (Homo sapiens) (UniProt Q9BXF3). As to the kind of experiment: Binding affinity of recombinant His-tagged CECR2 (unknown origin) to histone H4Ac (1 to 21 residues) K5/8/12/Ac-Biotin-OH assessed as residual binding at 10 uM incubated for 30 mins by alphascreen analysis relative to control.
Data set [7] deals with Bromodomain-containing protein 4 (Homo sapiens) (UniProt O60885). As to the kind of experiment: Binding affinity of recombinant His-tagged BRD4-BD1 (unknown origin) to histone H4Ac (1 to 21 residues) K5/8/12/Ac-Biotin-OH assessed as residual binding at 10 uM incubated for 30 mins by alphascreen analysis relative to control.
Data set [8] concerns the target Nucleosome-remodeling factor subunit BPTF (Homo sapiens) (UniProt Q12830). As to the kind of experiment: Binding affinity of recombinant His-tagged BPTF (unknown origin) to histone H4Ac (1 to 21 residues) K5/8/12/Ac-Biotin-OH assessed as residual binding at 10 uM incubated for 30 mins by alphascreen analysis relative to control.
Another data set concerns HaCaT. As to the kind of experiment: Cytotoxicity against human HaCaT cells assessed as cell viability measured after 24 hrs by MTT assay. It is filed as functional, cell-based.
Data set [9] deals with Bromodomain-containing protein 3 (Homo sapiens) (UniProt Q15059). As to the kind of experiment: Binding affinity of recombinant His-tagged BRD3-BD2 (unknown origin) to histone H4Ac (1 to 21 residues) K5/8/12/Ac-Biotin-OH assessed as residual binding at 10 uM incubated for 30 mins by alphascreen analysis relative to control.
Chain of Bromodomain-containing protein 3 (Homo sapiens) (Q15059 2-726 limits assumed): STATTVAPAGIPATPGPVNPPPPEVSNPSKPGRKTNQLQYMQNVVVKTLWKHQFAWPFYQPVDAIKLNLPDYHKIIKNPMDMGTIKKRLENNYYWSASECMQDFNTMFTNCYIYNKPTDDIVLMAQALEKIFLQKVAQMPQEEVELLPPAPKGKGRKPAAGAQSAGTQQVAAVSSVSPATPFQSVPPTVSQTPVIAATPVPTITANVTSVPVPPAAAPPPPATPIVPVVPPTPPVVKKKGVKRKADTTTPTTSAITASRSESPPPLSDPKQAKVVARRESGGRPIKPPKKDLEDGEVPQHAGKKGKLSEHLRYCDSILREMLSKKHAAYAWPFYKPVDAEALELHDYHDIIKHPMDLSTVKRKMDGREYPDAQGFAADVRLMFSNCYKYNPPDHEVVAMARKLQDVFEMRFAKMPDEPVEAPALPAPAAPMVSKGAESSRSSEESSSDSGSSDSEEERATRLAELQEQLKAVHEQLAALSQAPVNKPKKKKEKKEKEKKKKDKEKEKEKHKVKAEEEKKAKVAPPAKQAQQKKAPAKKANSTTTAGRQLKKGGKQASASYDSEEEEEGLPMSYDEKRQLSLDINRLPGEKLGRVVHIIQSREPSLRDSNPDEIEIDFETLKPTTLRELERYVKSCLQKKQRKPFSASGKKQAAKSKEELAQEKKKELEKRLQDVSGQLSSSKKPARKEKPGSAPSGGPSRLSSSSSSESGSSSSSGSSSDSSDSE
For data set [10], the target named is Bromodomain and PHD finger-containing protein 3 (Homo sapiens) (UniProt Q9ULD4). As to the kind of experiment: Binding affinity of recombinant His-tagged BRPF-3 (unknown origin) to histone H4Ac (1 to 21 residues) K5/8/12/Ac-Biotin-OH assessed as residual binding at 10 uM incubated for 30 mins by alphascreen analysis relative to control.
Data set [11] addresses ATPase family AAA domain-containing protein 2 (Homo sapiens) (UniProt Q6PL18). As to the kind of experiment: Binding affinity of recombinant His-tagged ATAD2 (unknown origin) to histone H4Ac (1 to 21 residues) K5/8/12/Ac-Biotin-OH assessed as residual binding at 10 uM incubated for 30 mins by alphascreen analysis relative to control.
Data set [12] has as its target T2, Bromodomain-containing protein 9 (Homo sapiens) (UniProt Q9H8M2).
T2 sequence (whole entry): T1 sequence (Q9H8M2 whole entry)
As to the kind of experiment: Binding affinity of GST-tagged BRD9 domain (unknown origin) to histone H4Ac (1 to 21 residues) assessed as residual binding at 10 uM by alphascreen analysis relative to control.

For the next data set, the system named is Jurkat. As to the kind of experiment: Cytotoxicity against human Jurkat cells assessed as cell viability measured after 24 hrs by MTT assay. It is filed as functional, cell-based.
Data set [13] addresses Bromodomain-containing protein 7 (Homo sapiens) (UniProt Q9NPI1). As to the kind of experiment: Binding affinity of recombinant His-tagged […] (unknown origin) to histone H3 (1 to 30 residues) K4/18/23/27Ac assessed as residual binding at 10 uM incubated for 30 mins by alphascreen analysis relative to control.
The target in data set [14] is Transcription initiation factor TFIID subunit 1 (Homo sapiens) (UniProt P21675). As to the kind of experiment: Binding affinity of recombinant His-tagged TAF1 (unknown origin) to histone H4Ac (1 to 21 residues) K5/8/12/Ac-Biotin-OH assessed as residual binding at 10 uM incubated for 30 mins by alphascreen analysis relative to control.
In a further data set the test system is Caco-2. As to the kind of experiment: Cytotoxicity against human Caco-2 cells assessed as cell viability measured after 24 hrs by MTT assay. Particulars: Caco-2, 24 h. It is filed as functional, cell-based.
The target of data set [15] is Bromodomain-containing protein 2 (Homo sapiens) (UniProt P25440). As to the kind of experiment: Binding affinity of recombinant His-tagged BRD2-BD1 (unknown origin) to histone H4Ac (1 to 21 residues) K5/8/12/Ac-Biotin-OH assessed as residual binding at 10 uM incubated for 30 mins by alphascreen analysis relative to control.
Chain of Bromodomain-containing protein 2 (Homo sapiens) (P25440 whole entry, looked up, the tested form may be a part): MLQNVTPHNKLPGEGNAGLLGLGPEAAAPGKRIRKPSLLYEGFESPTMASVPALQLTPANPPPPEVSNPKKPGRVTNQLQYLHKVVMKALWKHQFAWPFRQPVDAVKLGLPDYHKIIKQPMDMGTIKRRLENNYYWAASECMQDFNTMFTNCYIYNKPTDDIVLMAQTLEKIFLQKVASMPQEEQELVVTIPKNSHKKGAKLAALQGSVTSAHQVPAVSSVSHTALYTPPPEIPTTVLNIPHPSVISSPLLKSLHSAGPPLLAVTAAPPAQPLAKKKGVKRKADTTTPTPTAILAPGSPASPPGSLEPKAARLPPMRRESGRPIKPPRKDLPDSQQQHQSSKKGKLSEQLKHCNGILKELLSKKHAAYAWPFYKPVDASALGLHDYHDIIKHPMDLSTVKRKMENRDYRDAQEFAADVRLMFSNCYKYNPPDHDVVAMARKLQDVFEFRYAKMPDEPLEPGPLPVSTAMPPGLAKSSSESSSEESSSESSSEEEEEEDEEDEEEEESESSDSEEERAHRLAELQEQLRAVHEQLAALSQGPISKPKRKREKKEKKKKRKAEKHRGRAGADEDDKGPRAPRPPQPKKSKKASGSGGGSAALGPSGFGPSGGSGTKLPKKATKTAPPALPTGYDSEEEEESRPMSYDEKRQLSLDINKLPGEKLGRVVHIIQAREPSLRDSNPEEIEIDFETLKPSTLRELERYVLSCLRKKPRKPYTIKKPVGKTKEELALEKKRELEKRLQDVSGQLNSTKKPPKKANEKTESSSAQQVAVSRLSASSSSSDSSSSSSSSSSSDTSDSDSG
For data set [16] the target is unchanged. As to the kind of experiment: Binding affinity of recombinant His-tagged BRD2-BD2 (unknown origin) to histone H4Ac (1 to 21 residues) K5/8/12/Ac-Biotin-OH assessed as residual binding at 10 uM incubated for 30 mins by alphascreen analysis relative to control.
In data set [17] the target is Bromodomain-containing protein 3 (Homo sapiens) (UniProt Q15059). As to the kind of experiment: Binding affinity of recombinant His-tagged BRD3-BD1 (unknown origin) to histone H4Ac (1 to 21 residues) K5/8/12/Ac-Biotin-OH assessed as residual binding at 10 uM incubated for 30 mins by alphascreen analysis relative to control.
The target in data set [18] is Bromodomain testis-specific protein (Homo sapiens) (UniProt Q58F21). As to the kind of experiment: Binding affinity of recombinant His-tagged BRDT-BD1 (unknown origin) to histone H4Ac (1 to 21 residues) K5/8/12/Ac-Biotin-OH assessed as residual binding at 10 uM incubated for 30 mins by alphascreen analysis relative to control.
Data set [19] addresses Bromodomain-containing protein 1 (Homo sapiens) (UniProt O95696). As to the kind of experiment: Binding affinity of recombinant His-tagged BRD1 (unknown origin) to histone H4Ac (1 to 21 residues) K5/8/12/Ac-Biotin-OH assessed as residual binding at 10 uM incubated for 30 mins by alphascreen analysis relative to control.
Data set [20] addresses Bromodomain-containing protein 7 (Homo sapiens, UniProt Q9NPI1). As to the kind of experiment: Inhibition of recombinant His-tagged […] (unknown origin) to histone H3 (1 to 30 residues) K4/18/23/27Ac incubated for 30 mins by alphascreen analysis.
Data set [21] addresses SWI/SNF-related matrix-associated actin-dependent regulator of chromatin subfamily A member 4 (Homo sapiens) (UniProt P51532). As to the kind of experiment: Binding affinity of recombinant His-tagged SMARCA4 (unknown origin) to histone H3 (1 to 30 residues) K4/18/23/27Ac assessed as residual binding at 10 uM incubated for 30 mins by alphascreen analysis relative to control.

Molecules are shown by their SMILES.

Chain of CREB-binding protein (Homo sapiens) (Q92793 2-2442 limits assumed): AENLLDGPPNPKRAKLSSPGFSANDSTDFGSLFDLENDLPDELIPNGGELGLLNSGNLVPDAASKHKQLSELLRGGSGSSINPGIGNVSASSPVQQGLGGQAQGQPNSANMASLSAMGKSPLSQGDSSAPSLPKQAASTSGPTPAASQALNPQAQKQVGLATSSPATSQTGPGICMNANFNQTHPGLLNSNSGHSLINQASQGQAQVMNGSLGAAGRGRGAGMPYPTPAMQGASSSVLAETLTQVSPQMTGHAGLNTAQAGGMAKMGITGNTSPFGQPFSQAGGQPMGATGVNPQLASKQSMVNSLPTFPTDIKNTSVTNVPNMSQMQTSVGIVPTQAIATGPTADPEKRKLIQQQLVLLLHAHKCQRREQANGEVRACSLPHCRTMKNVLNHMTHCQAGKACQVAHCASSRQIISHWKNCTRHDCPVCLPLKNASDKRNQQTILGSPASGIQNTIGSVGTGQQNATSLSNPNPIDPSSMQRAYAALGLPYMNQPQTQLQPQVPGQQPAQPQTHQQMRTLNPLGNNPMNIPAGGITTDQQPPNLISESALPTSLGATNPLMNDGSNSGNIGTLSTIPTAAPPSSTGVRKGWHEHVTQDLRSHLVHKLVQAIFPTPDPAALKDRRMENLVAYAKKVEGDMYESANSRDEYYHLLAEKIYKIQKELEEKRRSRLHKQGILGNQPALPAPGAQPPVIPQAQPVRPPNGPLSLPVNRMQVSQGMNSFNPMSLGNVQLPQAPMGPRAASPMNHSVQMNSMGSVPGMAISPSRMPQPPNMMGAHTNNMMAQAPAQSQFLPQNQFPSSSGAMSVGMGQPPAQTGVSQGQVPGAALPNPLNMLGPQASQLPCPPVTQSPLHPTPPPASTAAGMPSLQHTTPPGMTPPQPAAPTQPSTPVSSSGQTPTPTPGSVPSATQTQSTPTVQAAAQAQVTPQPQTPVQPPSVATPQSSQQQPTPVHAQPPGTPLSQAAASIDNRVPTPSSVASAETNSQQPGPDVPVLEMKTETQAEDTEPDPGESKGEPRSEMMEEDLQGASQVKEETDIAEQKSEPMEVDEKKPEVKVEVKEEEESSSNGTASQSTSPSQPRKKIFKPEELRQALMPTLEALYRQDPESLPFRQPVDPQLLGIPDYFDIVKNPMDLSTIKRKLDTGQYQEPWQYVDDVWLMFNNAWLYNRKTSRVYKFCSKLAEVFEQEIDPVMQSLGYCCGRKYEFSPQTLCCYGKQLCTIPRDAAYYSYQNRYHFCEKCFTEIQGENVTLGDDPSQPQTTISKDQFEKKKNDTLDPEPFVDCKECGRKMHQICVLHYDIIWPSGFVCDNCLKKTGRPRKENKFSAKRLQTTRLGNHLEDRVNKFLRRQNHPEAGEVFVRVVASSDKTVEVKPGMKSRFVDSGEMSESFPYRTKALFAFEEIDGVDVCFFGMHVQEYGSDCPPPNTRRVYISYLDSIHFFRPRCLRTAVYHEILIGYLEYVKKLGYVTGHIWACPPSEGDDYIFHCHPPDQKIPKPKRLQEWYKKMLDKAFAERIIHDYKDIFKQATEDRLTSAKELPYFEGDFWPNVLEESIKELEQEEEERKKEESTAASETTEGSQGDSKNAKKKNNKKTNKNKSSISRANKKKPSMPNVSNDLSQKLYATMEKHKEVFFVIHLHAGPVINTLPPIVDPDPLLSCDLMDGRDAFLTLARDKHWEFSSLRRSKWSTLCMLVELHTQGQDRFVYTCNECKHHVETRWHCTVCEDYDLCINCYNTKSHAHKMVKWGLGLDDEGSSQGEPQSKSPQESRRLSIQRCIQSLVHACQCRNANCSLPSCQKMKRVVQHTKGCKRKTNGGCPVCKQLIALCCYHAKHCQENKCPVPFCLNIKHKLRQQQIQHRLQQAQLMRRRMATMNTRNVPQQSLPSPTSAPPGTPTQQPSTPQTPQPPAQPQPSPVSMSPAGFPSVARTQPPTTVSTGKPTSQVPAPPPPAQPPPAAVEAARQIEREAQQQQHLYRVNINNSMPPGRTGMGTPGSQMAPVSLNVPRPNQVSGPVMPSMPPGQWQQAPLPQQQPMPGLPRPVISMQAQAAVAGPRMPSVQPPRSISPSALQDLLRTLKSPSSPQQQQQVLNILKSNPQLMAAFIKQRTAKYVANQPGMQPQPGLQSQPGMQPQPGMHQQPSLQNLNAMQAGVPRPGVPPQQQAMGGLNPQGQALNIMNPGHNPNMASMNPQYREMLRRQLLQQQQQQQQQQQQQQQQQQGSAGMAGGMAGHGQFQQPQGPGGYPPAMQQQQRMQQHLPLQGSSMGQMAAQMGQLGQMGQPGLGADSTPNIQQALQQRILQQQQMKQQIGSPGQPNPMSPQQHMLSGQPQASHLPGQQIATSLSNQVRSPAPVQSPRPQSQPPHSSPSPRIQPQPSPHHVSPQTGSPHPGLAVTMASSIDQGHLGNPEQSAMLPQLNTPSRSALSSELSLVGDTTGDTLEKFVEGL
Chain of Bromodomain-containing protein 1 (Homo sapiens) (O95696 whole entry, the tested form may be a part): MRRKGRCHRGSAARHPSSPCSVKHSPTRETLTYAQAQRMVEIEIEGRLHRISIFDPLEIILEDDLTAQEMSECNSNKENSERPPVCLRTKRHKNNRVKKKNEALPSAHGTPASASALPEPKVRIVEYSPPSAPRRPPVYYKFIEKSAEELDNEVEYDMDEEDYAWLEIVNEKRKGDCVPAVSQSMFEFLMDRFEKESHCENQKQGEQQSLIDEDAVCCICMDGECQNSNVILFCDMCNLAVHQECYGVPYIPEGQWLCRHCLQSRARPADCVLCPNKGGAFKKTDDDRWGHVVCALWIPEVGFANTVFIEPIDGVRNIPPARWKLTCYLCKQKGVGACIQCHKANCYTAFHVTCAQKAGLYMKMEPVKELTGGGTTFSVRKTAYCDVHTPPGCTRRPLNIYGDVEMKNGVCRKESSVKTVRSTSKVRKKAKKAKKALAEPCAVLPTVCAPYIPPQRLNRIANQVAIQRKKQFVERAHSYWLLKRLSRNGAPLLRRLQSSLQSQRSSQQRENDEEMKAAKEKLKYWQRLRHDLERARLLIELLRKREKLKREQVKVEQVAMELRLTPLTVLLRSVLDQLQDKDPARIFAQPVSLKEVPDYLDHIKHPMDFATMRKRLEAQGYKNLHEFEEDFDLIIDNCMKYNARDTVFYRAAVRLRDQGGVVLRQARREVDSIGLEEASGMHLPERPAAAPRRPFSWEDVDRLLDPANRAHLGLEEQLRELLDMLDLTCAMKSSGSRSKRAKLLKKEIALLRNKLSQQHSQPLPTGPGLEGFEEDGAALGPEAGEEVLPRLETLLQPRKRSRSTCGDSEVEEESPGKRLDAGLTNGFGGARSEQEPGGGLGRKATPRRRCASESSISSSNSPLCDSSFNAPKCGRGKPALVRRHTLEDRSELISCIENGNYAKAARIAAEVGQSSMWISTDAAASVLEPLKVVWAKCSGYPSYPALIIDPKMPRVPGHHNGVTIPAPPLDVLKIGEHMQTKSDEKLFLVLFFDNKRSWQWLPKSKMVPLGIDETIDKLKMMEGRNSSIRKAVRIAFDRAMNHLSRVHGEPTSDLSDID

For the compound `CCc1nn(C)c(=O)n1-c1ccc2c(c1)OCO2`, the IC50 (commonly the point on the concentration scale where inhibition reaches its midpoint) was 500 µM with MCF7; 0.14 µM in data set [2]; 270 µM with A-375; over 500 µM with HaCaT; 145 µM with Jurkat; 330 µM in the data set with Caco-2. The IC50 in [20] is 71.4 µM. Further, the Activity in data set [1] was 88.6%; in [3] it was over 100%; in [4], 97.7%; in [6] it was 92.6%; in data set [7], over 100%; in data set [8], 95.5%. Further, the Activity in data set [9] was over 100%; in data set [10] it was 94.2%; in [11] it was over 100%; in [12], 21.1%; in data set [13], 75.8%; in data set [14] it was 77.7%. In addition, the Activity in data set [15] was 98.9%; in data set [16], over 100%; in data set [17], 96.5%; in [18], over 100%; in [19], 97.3%; in [21], 96.5%. Besides, the IC50 at 24 h in [5] is over 500 µM.
With `CCc1nn(C)c(=O)n1-c1ccc(F)c(Cl)c1`, the 50% inhibitory concentration (IC50) in the data set on MCF7 is over 500 µM; in data set [2], 1.86 µM; in the data set on A-375, 500 µM; with HaCaT, over 500 µM; in the data set with Jurkat, 225 µM; in the data set on Caco-2 it was over 500 µM. Moreover, the Activity in data set [1] is over 100%; in [3], over 100%; in [4] it was over 100%; in [7], 99.2%; in data set [9] it was 98.3%; in data set [12] it was 24.3%. Besides, the Activity is over 100% in data set [15], over 100% in data set [16], over 100% in data set [17] and 98.2% in [18]. Besides, the IC50 at 24 h in data set [5] was over 500 µM.
Regarding `CCn1nc(C)n(-c2ccc(OC)c(OC)c2)c1=O`, the IC50 with MCF7 was 360 µM; in [2], 7.62 µM; in the data set with A-375 it was 400 µM; in the data set on HaCaT it was over 500 µM; in the data set with Jurkat, 315 µM; in the data set on Caco-2, 300 µM. Further, the Activity in [1] was over 100%; in data set [3], over 100%; in data set [4], over 100%; in data set [7] it was 99.2%; in data set [9] it was over 100%; in data set [12], 50.8%. In addition, the Activity in data set [15] was over 100%; in data set [16], over 100%; in data set [17], 97.8%; in data set [18], 97.9%. In addition, the IC50 at 24 h in data set [5] was over 500 µM.
